Assay: Active ingredient release (dissolution) profile from solid gelatine capsules in pharmacopeial buffer solutions
Type: physicochemical
Conditions: for released faster than FAV00A-Io by: 370.6 mg capsules vs FAV00A-Io 500 mg capsules
Method: Results of comparative studies of active ingredient release profiles from a drug formulated as solid gelatine capsules using two salts of N-methyl-4-benzylcarbamidopyridine, namely the chloride and iodide salts labelled “FAV00A-Cl” and “FAV00A-Io” hereinafter.
In order to assess the FAV00A-Cl substance release rate from a finished medicinal product, studies of active ingredient release profiles were carried out for FAV00A-Cl 370.6 mg capsules, in 3 reference pharmacopeial buffer solutions with pH 1.2, 4.5, 6.8 and typical measurement conditions (1000 ml of 0.1M HCl; 100 rpm (basket); 1000 ml of acetate buffer solution pH 4.5; 100 rpm (basket); 1000 ml of phosphate buffer solution pH 6.8; 100 rpm (basket), respectively). Study results were compared against FAV00A-Io 500 mg capsules (with consideration of molecular weights of FAV00A-Cl and FAV00A-Io substances: the dosage of FAV00A-Cl substance 370.6 mg is equivalent to the dosage of FAV00A-Io substance 500 mg). The iodide salt FAV00A-Io used in the study was the α-crystalline form of amizon as described in applicant's co-pending patent applications WO 2011/158058 and WO 2011/157743.

- released faster than FAV00A-Io by (0.1M HCl, 5-th minute): 40%
- released faster than FAV00A-Io by (0.1M HCl, 10-th minute): 20%
- Dissolution classification of the product (based on release in 15 min of more than 85%): rapidly dissolving
- released faster than FAV00A-Io by (buffer solution with pH 4.5, 5-th minute): 25%
- released faster than FAV00A-Io by (buffer solution with pH 4.5, 10-th minute): 10%
- released faster than FAV00A-Io by (buffer solution with pH 6.8, 5-th minute): 25%
- released faster than FAV00A-Io by (buffer solution with pH 6.8, 10-th minute): 15%
- Release of substance from finished medicinal product in 15 min (in 15 min, 3 reference pharmacopoeial buffer solutions (pH 1.2, 4.5, 6.8)): more than 85%
SMILES: C[n+]1ccc(C(=O)NCc2ccccc2)cc1.[Cl-] [FAV00A-Cl, N-methyl-4-benzylcarbamidopyridinium chloride]
